Reference: US20170273922A1, “UREA AND BIS-UREA BASED COMPOUNDS AND ANALOGUES THEREOF USEFUL IN THE TREATMENT OF ANDROGEN RECEPTOR MEDIATED DISEASES OR DISORDERS” (THE ROYAL INSTITUTION FOR THE ADVACEMENT OF LEARNING/MCGILL …, priority 2014, published 2017)

Key:
[1] = MTT assay (cytotoxicity), DU145 cells; assay type: cell-based; settings: human, DU145 cells, Table 4.1
In short: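 72 h continuous drug exposure, RPMI 1640/10% FBS, MTT endpoint; DMSO vehicle control.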

AR-v7 in LNCaP cells = target: T1, AR-v7 in LNCaP cells (Homo sapiens, UniProt P10275); assay: PSA-luc reporter assay in LNCaP cells transiently transfected with pIRES-AR-v7; settings: 24 h
T1 sequence (P10275 1-644 isoform P10275-3): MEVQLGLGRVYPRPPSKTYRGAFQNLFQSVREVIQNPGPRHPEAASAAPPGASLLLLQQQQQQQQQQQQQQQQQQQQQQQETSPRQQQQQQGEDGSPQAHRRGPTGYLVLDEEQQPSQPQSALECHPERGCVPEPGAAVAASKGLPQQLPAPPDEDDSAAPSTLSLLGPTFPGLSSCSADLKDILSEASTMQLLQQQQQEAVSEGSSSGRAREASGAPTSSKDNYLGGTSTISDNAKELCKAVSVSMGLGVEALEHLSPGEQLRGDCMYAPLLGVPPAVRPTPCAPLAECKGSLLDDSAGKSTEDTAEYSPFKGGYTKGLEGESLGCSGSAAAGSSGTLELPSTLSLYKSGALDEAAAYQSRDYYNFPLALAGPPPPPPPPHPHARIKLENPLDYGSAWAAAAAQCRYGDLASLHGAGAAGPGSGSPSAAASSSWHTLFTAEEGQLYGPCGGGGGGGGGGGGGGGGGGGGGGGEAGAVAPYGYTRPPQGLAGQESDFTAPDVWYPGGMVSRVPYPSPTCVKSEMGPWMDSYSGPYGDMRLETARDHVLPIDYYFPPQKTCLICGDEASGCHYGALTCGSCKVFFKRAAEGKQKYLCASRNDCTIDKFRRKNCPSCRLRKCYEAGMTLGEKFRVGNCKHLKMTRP
Description: NT, LNCaP cells were transiently transfected with pIRES vector, PSA-luc and pRL-TK. […] Cells were then transiently transfected with PSA-Luc and pRL-TK and exposed to DMSO or compounds for 24 h, in triplicate.

[2] = MTT assay (cytotoxicity), H1975 cells; assay type: cell-based; settings: human, 72 h treatment, Table 6.1
Description: (§1) MTT assays: LNCaP, 22Rv1, Du145, H1975, A549, MB231 and MCF-7 cells are maintained in RPMI 1640 supplemented with 10% FBS. Cells were seeded at a density of 6-7×10^3 cells per well in 96-well plates. After overnight incubation, cells in fresh RPMI 1640 supplemented with 10% FBS were exposed to DMSO vehicle control or test compounds at designated concentrations for 72 h. Viable cells were evaluated by MTT assays. Experiments were performed in triplicate and repeated at least twice.

[3] = MTT assay (cytotoxicity), A549 cells; assay type: cell-based; settings: human, 72 h treatment, Table 6.1
Description: as §1

[4] = MTT assay (cytotoxicity), MB231 cells; assay type: cell-based; settings: human, 72 h treatment, Table 6.1
Description: as §1

[5] = MTT assay (cytotoxicity), MCF-7 cells; assay type: cell-based; settings: human, 72 h treatment, Table 6.1
Description: as §1

[6] = MTT assay (72 h), liver hepatocellular carcinoma cell line of Table 6.1; assay type: cell-based; settings: human, HepG2 cells (liver hepatocellular carcinoma), 72 h treatment, read-out: Cytotoxicity (IC50, μM) HepG2

melting point	activity in LNCaP cells with forced expression of AR-v7 (PSA-luc) (AR-v7 in LNCaP cells)	SMILES	IC50 at 72 h [1]	IC50 at 72 h [2]	IC50 at 72 h [3]	IC50 at 72 h [4]	IC50 at 72 h [5]	IC50 at 72 h [6]
		O=C(Nc1ccc(Br)nc1)Nc1cc(C(F)(F)F)cc(C(F)(F)F)c1 [Compound 566]	1.7 µM					
213 to 215 °C	remain active	O=C(N/C=C/c1cccc(C(F)(F)F)c1)Nc1ccncn1 [Compound 562]						
	remain active	O=C(Nc1cccc(C(F)(F)F)c1)Nc1ccc(NC(=O)c2ccccc2F)c(C(F)(F)F)c1 [Compound 746]		2.5 µM	2.4 µM	4.6 µM	2.5 µM	1.2 µM
